Patent publication US6350731B1, “Platelet-derived growth factor analogues” (Trigen Limited, priority 1993, dated 2002)
Values belong to the substance of their own block, whether it stands above or below them. Where no end group is shown, it is not given here. SMCC = N-(4-carboxy-cyclohexyl-methyl)-maleimide cross-linker

How the values were obtained:
[1] = test system: smooth muscle cells of injured arteries; conditions: administration of PDGF, rat, reference [19]; cited from earlier work
large bed sores = conditions: locally applied, reference [31]; cited from earlier work
[2] = test system: human smooth muscle cells; test: 125I-PDGF-BB binding inhibition assay, human smooth muscle cells (peptides); conditions: FIG. 2B
Description: (§1) 3) Effect of PDGF Peptides on ^125I-PDGF-BB Binding to 3T3 Cells and Human Smooth Muscle Cells p PDGF-BB binding inhibition assay was performed as described by Engstrom et al. A murine fibroblast cell line 3T3.A31 and human aortic smooth muscle cells were used.

PDGF β-receptors = PDGF β-receptors (Homo sapiens, UniProt P09619); conditions: reference [6]; cited from earlier work
PDGF receptor = conditions: cited from earlier work
Swiss 3T3.A31 = test: [3H]-thymidine uptake assay on fibroblast cells in culture; type: cell-based, murine; conditions: for stimulatory (mitogenic) effect, thymidine uptake: FIG. 1
Description: 2) Effect of PDGF Peptides on Fibroblast Cells in Culture The stimulatory or inhibitory effect of the peptides on the murine fibroblast cell line Swiss 3T3.A31 were investigated using the [^3H]-thymidine uptake assay as described by Raines & Ross. The peptides were tested for their ability to stimulate thymidine uptake in the cells in culture.

3T3 cells = test: 125I-PDGF-BB binding inhibition assay, 3T3 cells; parameters: species or system murine; conditions: at the concentrations tested, FIG. 2A
Description: as §1

[3] = test system: corresponding immunising peptide; test: ELISA titre of polyclonal antisera; type: binding; conditions: rabbits immunised with peptide linked to thyroglobulin, FIGS. 3A, 3B
Description: (§2) Rabbits and mice were immunised with the peptides either in the free form mixed with Freund's adjuvant or conjugated to a carrier protein (Thyroglobulin or keyhole haemocyanin). Antisera were tested for antibody production to the peptides and PDGF using ELISA, dot blot assays and SDS-PAGE followed by Western blotting.

PDGF = target: T1, PDGF (Homo sapiens, UniProt P01127); test: Western blot vs native PDGF; type: binding; conditions: polyclonal antisera
T1 construct: both chains undergo proteolytic cleavage at the N-termini during maturation; The B chain is also processed at the C-terminal end
Description: as §2

T1 sequence (P01127 82-190 limits assumed): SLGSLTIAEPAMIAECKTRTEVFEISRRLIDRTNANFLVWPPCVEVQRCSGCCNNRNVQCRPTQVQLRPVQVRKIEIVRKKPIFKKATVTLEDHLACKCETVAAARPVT
PDGF β-receptors, sequence (P09619 33-1106): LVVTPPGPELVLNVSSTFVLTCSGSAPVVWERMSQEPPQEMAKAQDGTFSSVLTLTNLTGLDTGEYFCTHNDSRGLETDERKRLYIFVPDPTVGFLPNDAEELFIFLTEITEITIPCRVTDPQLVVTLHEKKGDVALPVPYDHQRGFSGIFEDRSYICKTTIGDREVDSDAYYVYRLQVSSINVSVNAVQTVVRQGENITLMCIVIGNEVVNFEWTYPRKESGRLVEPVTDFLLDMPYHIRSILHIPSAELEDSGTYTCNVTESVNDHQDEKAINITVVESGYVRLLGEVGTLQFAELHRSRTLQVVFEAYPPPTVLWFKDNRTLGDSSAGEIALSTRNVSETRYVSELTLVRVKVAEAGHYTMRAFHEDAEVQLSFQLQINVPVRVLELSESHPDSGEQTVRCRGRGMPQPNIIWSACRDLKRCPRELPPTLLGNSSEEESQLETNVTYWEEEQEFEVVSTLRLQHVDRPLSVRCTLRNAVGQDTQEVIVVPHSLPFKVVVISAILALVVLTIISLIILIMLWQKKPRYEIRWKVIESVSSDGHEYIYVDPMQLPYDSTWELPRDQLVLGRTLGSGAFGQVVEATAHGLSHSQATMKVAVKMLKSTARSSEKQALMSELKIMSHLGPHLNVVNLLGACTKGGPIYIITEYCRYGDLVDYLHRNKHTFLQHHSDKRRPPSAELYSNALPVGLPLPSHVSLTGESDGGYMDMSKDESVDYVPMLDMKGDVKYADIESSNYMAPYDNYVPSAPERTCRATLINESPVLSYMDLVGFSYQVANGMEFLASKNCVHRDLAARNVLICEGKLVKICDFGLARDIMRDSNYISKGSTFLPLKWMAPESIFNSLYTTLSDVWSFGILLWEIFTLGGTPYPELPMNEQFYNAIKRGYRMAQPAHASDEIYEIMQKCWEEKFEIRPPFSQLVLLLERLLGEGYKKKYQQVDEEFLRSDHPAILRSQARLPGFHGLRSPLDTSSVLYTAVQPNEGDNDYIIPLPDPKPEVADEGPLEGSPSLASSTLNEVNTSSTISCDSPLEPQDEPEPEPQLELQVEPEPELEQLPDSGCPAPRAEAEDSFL

Substance: PDGF: 28-31 KD dimeric, highly basic glycoprotein, mitogen for connective tissue cells
SMC migration from the media to the intima [1]: 20 fold | SMC proliferation in the media [1]: 2-3 fold | healing of large bed sores (large bed sores): stimulates the healing of large bed sores

Substance: Ac-^25I-S-R-R-L-I-D-R-T-N-A-N-F-L^38-(G-G-G-G-G-G)-^73R-K-I-E-I-V-R-K-K^81-C [GP14]
inhibition of labelled PDGF binding to human smooth muscle cells [2]: potent inhibitors

Substance: ANFLVW—EIVRKKP [literature peptide corresponding to PDGF-B chain residues 35-40 and 78-83]
antagonist for PDGF (PDGF β-receptors): effective as an antagonist for PDGF

Substance: Ac-^25I-S-R-R-L-I-D-R-T-N-A-N-F-L-V-W-P-P-C^43-(SMCC)-^73R-K-I-E-I-V-R-K-K^81-C (Ac-ISRRLIDRTNANFLVWPPC(SMCC)RKIEIVRKKC; also: SMCC joins Cys43 (pos 19) to Arg73 (pos 20) in place of a peptide bond) [GP20]
inhibition of labelled PDGF binding to human smooth muscle cells [2]: potent inhibitors

Substance: polylysin
inhibition of PDGF binding to its receptor (PDGF receptor): inhibit PDGF binding to its receptor

antibodies produced by the peptide reacted with native PDGF (Western immunoblot) (PDGF): reacted with the native PDGF
Substance: Ac-^25I-S-R-R-L-I-D-R-T-N-A-N-F-L^38-C (Ac-ISRRLIDRTNANFLC) [GP4]
stimulatory (mitogenic) effect, thymidine uptake (Swiss 3T3.A31): highest stimulatory effect | mitogenic effect upon reduction and alkylation of the C-terminal end cysteine residue (Swiss 3T3.A31; reduced and alkylated peptide): almost completely abolished | inhibition of binding of radiolabelled PDGF-BB to 3T3 cells (3T3 cells): modest inhibition | antibodies to the corresponding immunising peptide by ELISA [3]: high titre antibodies

Substance: AC-^73R-K-I-E-I-V-R-K-K^81-C (Ac-RKIEIVRKKC) [GP8]
stimulatory (mitogenic) effect, thymidine uptake (Swiss 3T3.A31): not as stimulatory as GP4 | inhibition of binding of radiolabelled PDGF-BB to 3T3 cells (3T3 cells): modest inhibition | antibodies to the corresponding immunising peptide by ELISA [3]: high titre antibodies

Substance: protamine sulphate
inhibition of PDGF binding to its receptor (PDGF receptor): inhibit PDGF binding to its receptor

antibodies produced by the peptide reacted with native PDGF (Western immunoblot) (PDGF): reacted with the native PDGF
Substance: ^73R-K-I-E-I-V-R-K-K-P-I-F-K-K-A-T-V^89 (RKIEIVRKKPIFKKATV) [GP21a]

Substance: Ac-^25I-S-R-R-L-I-D-R-T-N-A-N-F-L^38 (Ac-ISRRLIDRTNANFL) [GP2]
stimulatory (mitogenic) effect, thymidine uptake (Swiss 3T3.A31): low stimulatory effect
